From US20260183274A1, “PDK1 REGULATORY COMPOUND AND COMPOSITION CONTAINING THE SAME” (PROVIBIO CO., LTD., priority 2024, published 2026)

Test system: T cells isolated from mouse spleens
Experiment: T cell proliferation inhibition (CFSE flow cytometry, anti-CD3/anti-CD28 stimulation)
Format: cell-based
Settings: mouse spleen T cells, 3 days; for inhibition at 0.01 µM / inhibition at 0.1 µM / inhibition at 1 µM / inhibition at 10 µM / inhibition at 30 µM / inhibition at 50 µM: Mus musculus, T-cell, 72 h, read-out: Proliferation inhibition rate (%)
Method: To verify the T cell proliferation inhibitory effect of the compounds according to the present invention, the following experiment was performed based on flow cytometry analysis using carboxyfluorescein diacetate succinimidyl ester (CFSE), a fluorescent dye that binds to intracellular molecules via covalent bonds.
Spleens were extracted from 7-week-old C57BL/6 mice, ground, and then separated into single cells using a strainer (40 μm pore size, SPL). Red blood cells were removed using ACK (Ammonium-Chloride-Potassium) lysis buffer to isolate white blood cells.
Finally, using a MACS Magnetic Stand and LS column, T cells were isolated from the spleen.
The T cells isolated from the spleen were resuspended in 1 mL of free medium (RPMI-1640+200 U/mL penicillin+200 μg/mL streptomycin), and 0.3 μL of CFSE (10 mM) was added. The mixture was incubated at 37° C. for 5 minutes.
Free medium (10 mL) was added to stop the reaction, and the cells were centrifuged to obtain the cell pellet.
RPMI 1640 medium containing 10% FBS, 100 U/mL penicillin, 100 μg/mL streptomycin, and resuspended the cells. The cells were then seeded into a 96-well plate at a density of 2×10^5 cells per well and activated with CD3 and CD28 antibodies (0.5 μg/mL each) to activate T cells.
The compound diluted in DMSO was added at concentrations of 10 nM, 100 nM, 1 μM, 10 μM, 30 μM, and 50 μM, with three wells per concentration, and cultured at 37° C. and 5% CO2 for three days. The cells were then analyzed using a FACS Canto instrument.
The proliferation inhibition rate (%) was calculated using the following formula: […]

| SMILES | inhibition at 0.01 µM (compound 10 nM) | inhibition at 0.1 µM (compound 100 nM) | inhibition at 1 µM (compound 1 μM) | inhibition at 10 µM (compound 10 μM) | inhibition at 30 µM (compound 30 μM) | inhibition at 50 µM (compound 50 μM) | also measured |
| --- | --- | --- | --- | --- | --- | --- | --- |
| Nc1ncccc1C(=O)NCCCCCCCCCCCCN1CCN(CC2CCCCC2)CC1 [Compound 113, 2-amino-N-(12-(4-(cyclohexylmethyl)piperazin-1-yl)dodecyl)nicotinamide] | 11.1% | 100% | 100% | 100% | 100% | 100% | – |
| Nc1ncccc1C(=O)NCCCN1CCOCC1 [Compound 78, 2-amino-N-(3-morpholin-4-yl-propyl)nicotinamide] | -7.14% | -4.19% | -3.73% | 0.68% | 4.51% | 8.76% | – |
| O=C(NCCCCCCCCCCCCF)c1ccncc1I [Compound 76, N-(12-fluoro-dodecyl)-3-iodo-isonicotinamide] | 0% | 0% | 0% | -4.95% | 23.7% | 97.8% | – |
| CN1CCN(CCCCCCCCCCCCNC(=O)c2ccccc2-n2cccc2)CC1 [Compound 193, N-(12-(4-methylpiperazin-1-yl)dodecyl)-2-(1H-pyrrol-1-yl)benzamide] | 5.02% | 4.87% | 12% | 100% | 100% | 100% | – |
| CC1(C)CCN(CCCCCCCCCCCCNC(=O)c2cccnc2N)CC1 [Compound 102, 2-Amino-N-(12-(4,4-dimethylpiperidin-1-yl)dodecyl)nicotinamide] | -4.53% | 100% | 100% | 100% | 100% | 100% | – |
| COc1cccc(OC)c1C(=O)NCCCCCCCCCCCCN1CCN(C)CC1 [Compound 218, 2,6-Dimethoxy-N-(12-(4-methylpiperazin-1-yl)dodecyl)benzamide] | 1.31% | 2.74% | 12.4% | 100% | 100% | 100% | – |
| Nc1ncccc1C(=O)NCCCCCCCCCCCCNC1CCOC1 (centres unmarked) [Compound 128, 2-amino-N-(12-((tetrahydrofuran-3-yl)amino)dodecyl) nicotinamide] | – | – | – | – | – | – | Proliferation inhibition rate (%) (compound 10 nM): −7.16%; Proliferation inhibition rate (%) (compound 100 nM): 100.00%; Proliferation inhibition rate (%) (compound 1 μM): 100.00%; Proliferation inhibition rate (%) (compound 10 μM): 100.00%; Proliferation inhibition rate (%) (compound 30 μM): 100.00%; Proliferation inhibition rate (%) (compound 50 μM): 100.00% |
| CC(C)N1CCN(CCCCCCCCCCCCNC(=O)c2cccnc2N)CC1 [Compound 104, 2-Amino-N-(12-(4-isopropylpiperazin-1-yl)dodecyl) nicotinamide] | – | – | – | – | – | – | Proliferation inhibition rate (%) (compound 10 nM): 100.00%; Proliferation inhibition rate (%) (compound 100 nM): 100.00%; Proliferation inhibition rate (%) (compound 1 μM): 100.00%; Proliferation inhibition rate (%) (compound 10 μM): 100.00%; Proliferation inhibition rate (%) (compound 30 μM): 100.00%; Proliferation inhibition rate (%) (compound 50 μM): 100.00% |
| Nc1ncccc1C(=O)NCCCCCCCCCCCCN1CCN(C(=O)C2CC2)CC1 [Compound 99, 2-amino-N-(12-(4-(cyclopropanecarbonyl)piperazin-1-yl)dodecyl)nicotinamide] | -12.1% | 100% | 100% | 100% | 100% | 100% | – |
| Nc1ncccc1C(=O)NCCCCCCCCCCCCN1CCC2(CC1)CC2 [Compound 108, N-(12-(6-Azaspiro[2.5]octan-6-yl)dodecyl)-2-aminonicotinamide] | 0.88% | 28.5% | 100% | 100% | 100% | 100% | – |
| Cc1nn(CCCCCCCCCCCCNC(=O)c2cccnc2N)cc1Br [Compound 105, 2-Amino-N-(12-(4-bromo-3-methyl-1H-pyrazol-1-yl)dodecyl)nicotinamide] | 6.73% | 8.33% | 38.9% | 100% | 100% | 100% | – |
| CC(C)(C)OC(=O)NC1CCN(CCCCCCCCCCCCNC(=O)c2cccnc2N)CC1 [Compound 101, tert-Butyl (1-(12-(2-aminonicotinamido)dodecyl)piperidin-4-yl) carbamate] | – | – | – | – | – | – | Proliferation inhibition rate (%) (compound 10 nM): −0.15%; Proliferation inhibition rate (%) (compound 100 nM): 100.00%; Proliferation inhibition rate (%) (compound 1 μM): 100.00%; Proliferation inhibition rate (%) (compound 10 μM): 100.00%; Proliferation inhibition rate (%) (compound 30 μM): 100.00%; Proliferation inhibition rate (%) (compound 50 μM): 100.00% |
| COC1CCN(CCCCCCCCCCCCNC(=O)c2cccnc2N)CC1 [Compound 94, 2-amino-N-(12-(4-methoxypiperidin-1-yl)dodecyl) nicotinamide] | – | – | – | – | – | – | Proliferation inhibition rate (%) (compound 10 nM): −25.44%; Proliferation inhibition rate (%) (compound 100 nM): 100.00%; Proliferation inhibition rate (%) (compound 1 μM): 100.00%; Proliferation inhibition rate (%) (compound 10 μM): 100.00%; Proliferation inhibition rate (%) (compound 30 μM): 100.00%; Proliferation inhibition rate (%) (compound 50 μM): 100.00% |
| CN1CCN(CCCCCCCCCCCCNC(=O)c2ccncc2N)CC1 [Compound 209, 3-Amino-N-(12-(4-methylpiperazin-1-yl)dodecyl)isonicotinamide] | -1.45% | 1.59% | 18.8% | 84.5% | 100% | 100% | – |
| CCOc1cc(C(C)(C)C)ccc1C(=O)NCCCCCCCCCCCCN1CCN(C)CC1 [Compound 216, 4-(tert-butyl)-2-ethoxy-N-(12-(4-methylpiperazin-1-yl)dodecyl)benzamide] | 2.03% | 2.32% | 13% | 100% | 100% | 100% | – |
| CC(C)(C)OC(=O)N1CCN(CCCCCCCCCCCCNC(=O)c2cccnc2N)CC1 [Compound 111, tert-butyl-4-(12-(2-aminonicotinamido)dodecyl) piperazine-1-carboxylate] | – | – | – | – | – | – | Proliferation inhibition rate (%) (compound 10 nM): 0.00%; Proliferation inhibition rate (%) (compound 100 nM): 100.00%; Proliferation inhibition rate (%) (compound 1 μM): 100.00%; Proliferation inhibition rate (%) (compound 10 μM): 100.00%; Proliferation inhibition rate (%) (compound 30 μM): 100.00%; Proliferation inhibition rate (%) (compound 50 μM): 100.00% |
| CN1CCN(CCCCCCCCCCCCNC(=O)c2ccncc2Cl)CC1 [Compound 199, 3-Chloro-N-(12-(4-methylpiperazin-1-yl)dodecyl)isonicotinamide] | 0% | 0% | 0% | 40% | 100% | 100% | – |
| CN1CCN(CCCCCCCCCCCCNC(=O)c2cnccc2N)CC1 [Compound 212, 4-Amino-N-(12-(4-methylpiperazin-1-yl)dodecyl)nicotinamide] | – | – | – | – | – | – | Proliferation inhibition rate (%) (compound 10 nM, listed as KP-64, 0.01 µM): −2.89%; Proliferation inhibition rate (%) (compound 100 nM, listed as KP-64, 0.1 µM): −3.91%; Proliferation inhibition rate (%) (compound 1 μM, listed as KP-64, 1 µM): −4.34%; Proliferation inhibition rate (%) (compound 10 μM, listed as KP-64, 10 µM): 20.55%; Proliferation inhibition rate (%) (compound 30 μM, listed as KP-64, 30 µM): 71.78% |
| CCOC(=O)C1CCN(CCCCCCCCCCCCNC(=O)c2cccnc2N)CC1 [Compound 103, Ethyl 1-(12-(2-aminonicotinamido)dodecyl)piperidine-4-carboxylate] | -6.43% | 100% | 100% | 100% | 100% | 100% | – |
